Source: paper PMC11234710, “Comparison of a novel potentiator of CFTR channel activity to ivacaftor in ameliorating mucostasis caused by cigarette smoke in primary human bronchial airway epithelial cells” (Respiratory Research, 2024)
pEC50: −log10 of the molar value.

Molecular target: F508del-CFTR (Homo sapiens, UniProt P13569, DEL508-508)
Experiment: fluorescence membrane potential assay in HEK-293 cells expressing F508del-CFTR, […] °C, forskolin activated
Assay type: cell-based

Chain of F508del-CFTR (P13569 with tags, fused parts or gaps DEL508-508): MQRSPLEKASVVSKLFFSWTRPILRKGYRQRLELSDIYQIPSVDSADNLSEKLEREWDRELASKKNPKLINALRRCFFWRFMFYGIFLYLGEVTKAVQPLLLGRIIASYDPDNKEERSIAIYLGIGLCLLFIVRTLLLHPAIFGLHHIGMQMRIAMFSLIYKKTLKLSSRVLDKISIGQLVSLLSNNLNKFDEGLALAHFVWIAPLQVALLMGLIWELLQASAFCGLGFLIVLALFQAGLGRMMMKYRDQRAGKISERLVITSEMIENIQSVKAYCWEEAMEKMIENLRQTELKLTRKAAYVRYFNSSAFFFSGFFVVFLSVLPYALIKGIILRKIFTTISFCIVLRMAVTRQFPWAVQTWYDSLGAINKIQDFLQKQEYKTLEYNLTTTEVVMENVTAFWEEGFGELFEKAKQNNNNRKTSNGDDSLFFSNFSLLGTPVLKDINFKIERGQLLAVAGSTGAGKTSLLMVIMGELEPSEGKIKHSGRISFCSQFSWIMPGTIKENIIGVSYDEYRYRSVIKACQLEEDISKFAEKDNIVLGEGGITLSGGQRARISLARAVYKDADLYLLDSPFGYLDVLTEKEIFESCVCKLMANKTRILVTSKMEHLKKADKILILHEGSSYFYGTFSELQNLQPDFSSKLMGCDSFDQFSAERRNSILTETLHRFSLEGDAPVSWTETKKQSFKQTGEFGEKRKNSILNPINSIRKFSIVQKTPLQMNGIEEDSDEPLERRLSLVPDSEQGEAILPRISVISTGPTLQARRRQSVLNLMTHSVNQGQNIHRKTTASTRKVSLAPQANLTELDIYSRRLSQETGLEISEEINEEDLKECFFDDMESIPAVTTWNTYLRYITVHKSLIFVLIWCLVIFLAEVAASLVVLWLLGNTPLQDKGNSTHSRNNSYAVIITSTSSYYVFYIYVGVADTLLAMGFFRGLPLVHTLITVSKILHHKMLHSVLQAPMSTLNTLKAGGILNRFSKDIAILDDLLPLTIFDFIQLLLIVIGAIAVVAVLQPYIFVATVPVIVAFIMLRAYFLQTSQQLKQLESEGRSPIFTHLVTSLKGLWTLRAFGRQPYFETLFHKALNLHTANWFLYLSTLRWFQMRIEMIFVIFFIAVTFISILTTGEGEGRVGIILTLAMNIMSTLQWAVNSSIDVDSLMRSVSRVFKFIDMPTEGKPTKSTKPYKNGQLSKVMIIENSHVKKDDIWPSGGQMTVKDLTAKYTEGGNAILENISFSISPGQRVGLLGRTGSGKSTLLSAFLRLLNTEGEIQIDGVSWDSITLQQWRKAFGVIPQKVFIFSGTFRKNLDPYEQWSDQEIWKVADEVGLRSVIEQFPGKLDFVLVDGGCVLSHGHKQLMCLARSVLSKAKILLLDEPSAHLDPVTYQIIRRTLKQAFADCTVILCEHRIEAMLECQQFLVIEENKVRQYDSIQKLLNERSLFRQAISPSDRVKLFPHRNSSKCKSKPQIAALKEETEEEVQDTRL

Question: CC(C)(C)c1cc(C(C)(C)C)c(NC(=O)c2c[nH]c3ccccc3c2=O)cc1O [VX-770] was tested. Which pEC50 did it give?
Answer: Its pEC50 is 6.42.
